Experimental data as given in US6413521B1, “Helminth parasite antigen with aminopeptidase-like activity” (The Barbraham Institute, priority 1993, dated 2002).

Experiments:
pig ApA and ApM = settings: Aoyagi et al., J. Antibiotics 43(2); cited from earlier work
Con A Oo12 ApM activity = experiment: Con A O12 aminopeptidase inhibition assay, ApM (leucine p-nitroanilide); format: biochemical, Ostertagia ostertagi
Experimental: (§1) The effect of various protease inhibitors on Oo12 activity was assayed and included amastatin (aminopeptidase inhibitor), actinonin (aminopeptidase inhibitor), bestatin (aminopeptidase inhibitor), EDTA (metallo-protease inhibitor), E64 (cysteine protease inhibitor), pepstatin (aspartic protease inhibitor), 1,10 phenanthroline (metallo-protease inhibitor) and 3,4-dichloroisocoumarin (DCI, serine protease inhibitor). 10 μl Con A Oo12 and 100 μl 50 mM Mops buffer, pH 7.0 was added to a microtitre plate well and 2-4 μl of enzyme inhibitor added, to give a final concentration of 0.5 mM and 1 mM actinonin, 50 μM and 100 μM bestatin, 1 mM and 15 mM EDTA, 50 μM and 100 μM E64, 10 and 50 μM pepstatin, 1 mM and 10 mM 1,10 phenanthroline, 100 μM and 500 μM DCI. The plate was preincubated at 37° C. for 20-28 minutes and then assayed for ApM and ApA activity. 100 μl 2 mM leucine p-nitroanilide (ApM) or α-glutamic p-nitroanilide (ApA)/Mops was added per well and the optical density (OD) at 405 nm read using an Elisa plate reader. The plates were incubated at 37° C. for 45-48 minutes and the final OD reading was then taken. The OD change per minute per 10 μl sample was calculated. All assays were carried out in triplicate.

Con A Oo12 ApA activity = experiment: Con A O12 aminopeptidase inhibition assay, ApA (α-glutamic p-nitroanilide); format: biochemical, Ostertagia ostertagi
Experimental: as §1

Ostertagia ostertagi PHP = experiment: Protease digestion of Oo PhP, release of ApM activity; format: biochemical
Experimental: Method: Oo PhP was resuspended in 50 mM Mops buffer, pH 7.0 to give 0.1 mg pellet/ml. 50 μl aliquots were prewarmed at 37° C. for 39 minutes. 5 μl of either α-Chymotrypsin (Sigma type VII, 50 units/mg solid), Subtilisin (Sigma type VIII, 11.6 units/mg solid), Trypsin (Sigma, TPCK-treated type XIII, 9700 units/mg solid) or Thermolysin (Sigma, 37 units/mg solid dissolved in 1 mM KCl/2 mM CaCl) was added to give final protease concentrations of 5, 50, 500, 1000 and 2000 μg/ml. Aliquots containing chymotrypsin, trypsin or subtilisin were then incubated at 37° C. for 1 hour and protease activity inhibited by the addition of 1 μl 10 mM 3,4-dichloroisocoumarin (DCI). Aliquots containing thermolysin were incubated for 2 hours at 37° C. and activity inhibited by the addition of 1 μl 0.25M EDTA. Samples were spun at high speed on the airfuge at 20 psi for 20 minutes at room temperature. 5 μl samples were assay for ApM activity, using the microtitre plate method, over 29.6 minutes with methionine-pNA as substrate.

[1] = tested on: O. ostertagi extracted residue (microsomal aminopeptidase); experiment: Trypsin digestion of O12: aminopeptidase activity released from extracted O. ostertagi residue; format: biochemical, Ostertagia ostertagi
Experimental: The residue obtained by centrifuging an homogenate of O. ostertagi in phosphate-buffered saline containing 0.02% sodium azide (PBSa) at 26,500 g (max) for 20 minutes in a swing-out rotor was re-extracted 3 times with PBSa, once with 1% polyoxyethylenesorbitan monolaurate (Tween 20) in PBSa and once with 50 mM 3-[N-morpholino]propane-sulphonic acid (MOPS) pH 8.0. The extracted residue was resuspended in 50 mM MOPS to give the equivalent of 0.17 g worm starting material per ml. Aliquots were digested with 0.5, 5, 50 or 500 μg TPCK-trypsin (trypsin treated with L-1-tosylamide-2-phenylethylchloromethyl ketone)/ml. Digestions were stopped by the addition of 10 mM DCI (15 μl/ml). […] Release of microsomal aminopeptidase A activity was negligible from pellets digested with 0-50 μg TPCK-trypsin/ml.
In another experiment material from 5 g O. ostertagi was digested twice with 50 μg/ml TPCK-trypsin. About 33% of the original amount of ApM was released after a second digest. […] Fractions were run on SDS-PAGE on a 6-16% minigel. After Coomassie blue staining, a band located around the 116,000 region, about the size expected from tryptic digestion of O12 was located in the fractions having the microsomal aminopeptidase activity.
A further 4.3 g of O. ostertagi was digested twice with TPCK-trypsin as above. The total aminopeptidase activity solubilised equalled 455 nmoles/min (Table 6). The high speed supernatants from the first and second digests (Trypsin HS1 & HS2) were buffer exchanged with ConA buffer A and run on a ConA sepharose column. The start material applied to the column was enriched for ApM activity, having a ratio of ApM:ApA of 18:1. All the ApM activity bound to the column (there was none in the wash-through); and 67% of this was recovered by elution with 0.5M methylglucopyranoside+0.2M methylmannoside. (Thus the use of two sugars in the eluting buffer more than doubled ApM recovery from the ConA column.) Fractions containing ApM activity were pooled, concentrated and subjected to gel filtration (on an FPLC Superdex 75 HR10/30 (Pharmacia) column). […]

Oc12 = experiment: Blot of O. circumcincta extracts probed with biotinylated lectins; format: binding, Ostertagia circumcincta; settings: electroblot of O.circumcincta extracts
Excerpt: The O.circumcincta extracts were electroblotted alongside a sample of H110D and probed with several biotinylated lectins to determine which, if any, would bind to Oc12. (FIG. 8). Biotinylated Concanavalin A, Ulex europaeus, Triticum vulgaris, Dolichos biflorus and Arachis hypogea lectins were used at dilutions optimised for use with H110D. […] U.europaeus lectin bound to several low molecular weight bands and may be used as an affinity chromatography column for removing low molecular weight protein from OcThHS. The wash-through fractions from such a column were applied to a Con A affinity column and the bound proteins were eluted with a gradient of 0-100% 0.5M methylglucoside (FIG. 9). Fractions were assayed for aminopeptidase-like activity (FIG. 10). Aminopeptidase M-like activity was present in the binding fractions.

CC(C)C[C@@H](N)[C@H](O)C(=O)N[C@H](C(=O)N[C@H](C(=O)N[C@@H](CC(=O)O)C(=O)O)C(C)C)C(C)C [Amaststin, amastatin]
inhibition of pig ApA versus ApM (pig ApA and ApM): better inhibitor of pig ApA than of ApM
Leu-pNA enzyme activity (Con A Oo12 ApM activity; inhibitor 10 μM): 0.218 nmoles/min/10 μl ConA O12
Leu-pNA enzyme inhibition (Con A Oo12 ApM activity; inhibitor 10 μM): 86%
Leu-pNA enzyme activity (Con A Oo12 ApM activity; inhibitor 50 μM): 0.074 nmoles/min/10 μl ConA O12
Leu-pNA enzyme inhibition (Con A Oo12 ApM activity; inhibitor 50 μM): 95%
α-Glu-pNA enzyme activity (Con A Oo12 ApA activity; inhibitor 10 μM): 0.282 nmoles/min/10 μl ConA O12
α-Glu-pNA enzyme inhibition (Con A Oo12 ApA activity; inhibitor 10 μM): 12%
α-Glu-pNA enzyme activity (Con A Oo12 ApA activity; inhibitor 50 μM): 0.205 nmoles/min/10 μl ConA O12
α-Glu-pNA enzyme inhibition (Con A Oo12 ApA activity; inhibitor 50 μM): 36%

B1: Trypsin: protease, Sigma, TPCK-treated type XIII, 9700 units/mg solid (protein, UniProt P00760 24-246, looked up)
Serine protease 1: IVGGYTCGANTVPYQVSLNSGYHFCGGSLINSQWVVSAAHCYKSGIQVRLGEDNINVVEGNEQFISASKSIVHPSYNSNTLNNDIMLIKLKSAASLNSRVASISLPTSCASAGTQCLISGWGNTKSSGTSYPDVLKCLKAPILSDSSCKSAYPGQITSNMFCAGYLEGGKDSCQGDSGGPVVCSGKLQGIVSWGSGCAQKNKPGVYTKVCNYVSWIKQTIASN
modifications: TPCK-treated
notes: protease, Sigma, TPCK-treated type XIII, 9700 units/mg solid
Aminopeptidase M activity released by protease digestion, Met-pNA (Ostertagia ostertagi PHP; 5 μg protease/0.1 mg PHP/ml): 0.118 nmoles/min/5 μl high speed supernatant
Aminopeptidase M activity released by protease digestion, Met-pNA (Ostertagia ostertagi PHP; 50 μg protease/0.1 mg PHP/ml): 0.246 nmoles/min/5 μl high speed supernatant
Aminopeptidase M activity released by protease digestion, Met-pNA (Ostertagia ostertagi PHP; 500 μg protease/0.1 mg PHP/ml): 1.075 nmoles/min/5 μl high speed supernatant
Aminopeptidase M activity released by protease digestion, Met-pNA (Ostertagia ostertagi PHP; 1000 μg protease/0.1 mg PHP/ml): 1.273 nmoles/min/5 μl high speed supernatant
Aminopeptidase M activity released by protease digestion, Met-pNA (Ostertagia ostertagi PHP; 2000 μg protease/0.1 mg PHP/ml): 1.068 nmoles/min/5 μl high speed supernatant
release of microsomal aminopeptidase A activity ([1]; 0-50 μg TPCK-trypsin/ml): negligible
release of microsomal aminopeptidase M activity ([1]; 50 μg TPCK-trypsin (485 units), of 0.5, 5, 50 or 500 μg/ml): greatest amount
original amount of ApM released after a second digest ([1]; 5 g O. ostertagi digested twice with 50 μg/ml): About 33%

B2: D.biflorus lectin: biotinylated Dolichos biflorus lectin (protein)
chain: ANIQSFSFKNFNSPSFILQGDATVSSGKLQLTKVKENGIPTPSSLGRAFYSSPIQIYDKSTGAVASWATSFTVKISAPSKASFADGIAFALVPVGSEPRRNGGYLGVFDSDVYNNSAQTVAVEFDTFSNSGWDPSMKHIGIDVNSIKSIATVSWDLANGENAEILITYNAATSLLVASLVHPSRRTSYILSERVDITNELPEYVSVGFSATTGLSEGYIETHDVLSWSFASKLPDDSTAEPLDLASYLVRNVL
binding of biotinylated lectin to Oc12 (Oc12): binds very weakly
